Measured values from patent US8106055B2, “Substituted amide compounds” (Gruenenthal GmbH, priority 2007, dated 2012).

What was measured:
[1] = target: T1, human bradykinin 1 receptor (B1R) (Homo sapiens, UniProt P46663); assay: Functional investigation on the human bradykinin 1 receptor (B1R), Ca2+ FLIPR assay in CHO K1 hB1R cells; type: cell-based; settings: B1R antagonism human; test substance 10 μM; Ca2+ FLIPR, CHO K1 hB1R cells
T1 construct: expressed in transfected cells; host or cells: CHO K1 cells
T1 sequence (P46663 1-353): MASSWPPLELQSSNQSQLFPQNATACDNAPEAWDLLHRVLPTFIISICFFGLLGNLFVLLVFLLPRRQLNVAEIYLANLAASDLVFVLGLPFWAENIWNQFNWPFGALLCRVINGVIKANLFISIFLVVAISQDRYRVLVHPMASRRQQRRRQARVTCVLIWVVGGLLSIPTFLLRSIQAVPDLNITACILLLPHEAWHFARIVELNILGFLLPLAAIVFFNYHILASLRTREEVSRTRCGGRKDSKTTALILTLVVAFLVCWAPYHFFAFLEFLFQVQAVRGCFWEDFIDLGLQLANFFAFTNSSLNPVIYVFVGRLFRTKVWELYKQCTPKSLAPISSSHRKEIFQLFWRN
Procedure, shortened: (§1)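 Stably transfected CHO K1 cells loaded with Fluo-4; FLIPR Ca2+ fluorescence peak (ex 488/em 540 nm). Compound added first (agonism vs Lys-Des-Arg9-bradykinin ≥50 nM human, Des-Arg9-bradykinin 10 μM rat), then after 10-20 min agonist at EC80; antagonism as % inhibition, IC50 from concentration series, n=2-3, N≥2.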

[2] = target: T2, bradykinin 1 receptor (B1R) of the rat (Rattus norvegicus, UniProt P97583); assay: Functional investigation on the rat bradykinin 1 receptor (B1R), Ca2+ FLIPR assay in CHO K1 rB1R cells; type: cell-based; settings: B1R antagonism rat; test substance 10 μM; Ca2+ FLIPR, CHO K1 rB1R cells
T2 construct: expressed in transfected cells; host or cells: CHO K1 cells
T2 sequence (P97583 1-337): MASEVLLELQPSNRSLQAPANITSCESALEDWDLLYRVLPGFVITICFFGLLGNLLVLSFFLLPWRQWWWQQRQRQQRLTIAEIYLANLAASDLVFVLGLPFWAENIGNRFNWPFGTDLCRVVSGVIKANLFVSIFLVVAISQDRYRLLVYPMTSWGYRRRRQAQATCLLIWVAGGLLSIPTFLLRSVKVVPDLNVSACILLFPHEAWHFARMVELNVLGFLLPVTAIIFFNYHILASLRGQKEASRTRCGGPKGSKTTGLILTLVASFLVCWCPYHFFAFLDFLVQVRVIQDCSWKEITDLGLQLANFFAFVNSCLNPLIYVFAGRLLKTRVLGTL
Procedure, shortened: as §1

| Compound | B1R Ant. h [10 μM] % Inhibition [1] | B1R Ant. r [10 μM] % Inhibition [2] |
| --- | --- | --- |
| COc1cc(C)c(S(=O)(=O)N2CCN(CCOCC(=O)NCC3CCC(C(CCc4ccccc4)N(C)C)CC3)CC2)c(C)c1C (stereo not drawn) [Example 528] | 98% | 14% |
| Cc1ccc(S(=O)(=O)N2CCC(OCC(=O)NCC3CCC(C(CCc4ccccc4)N(C)C)CC3)C2)cc1 (stereo not drawn) [Example 538] | 7% | 5% |
| Cc1cc(C)c(S(=O)(=O)N2CCC(OCC(=O)NCCC3CCC(C(c4ccc(F)cc4)N(C)C)CC3)C2)c(C)c1 (stereo not drawn) [Example 501] | 77% | 38% |
| COc1cc(C)c(S(=O)(=O)N(CCOCC(=O)NCC2CCC(C(c3ccc(Cl)cc3)N(C)C)CC2)Cc2ccccc2)c(C)c1 (stereo not drawn) [Example 473] | 52% | −3% |
| COc1cc(C)c(S(=O)(=O)N2CCC(OCC(=O)NCC3CCC(C(c4ccc(F)cc4)N(C)C)CC3)CC2)c(C)c1C (stereo not drawn) [Example 527] | 57% | 68% |
| COc1ccc(S(=O)(=O)N2CCCCC2CCOCC(=O)NCC2CCC(C(CCc3ccccc3)N(C)C)CC2)cc1 (stereo not drawn) [Example 535] | 77% | 72% |
| COc1ccc(S(=O)(=O)N(C)CCOCC(=O)NCC2CCC(C(c3ccc(F)cc3)N(C)C)CC2)cc1OC (stereo not drawn) [Example 514] | −6% | 22% |
| COc1cc(C)c(S(=O)(=O)N2CCC(CCOCC(=O)NCC3CCC(C(c4ccc(F)cc4)N(C)C)CC3)CC2)c(C)c1C (stereo not drawn) [Example 481] | 9% | 49% |
| COc1cc(C)c(S(=O)(=O)N(C)CCOCC(=O)NCC2CCC(C(c3ccc(F)cc3)N(C)C)CC2)c(C)c1 (stereo not drawn) [Example 458] | 103% | 104% |
| CN(C)C(c1ccc(F)cc1)C1CCC(CCNC(=O)COC2CCCN(S(=O)(=O)c3ccccc3)C2)CC1 (stereo not drawn) [Example 520] | −4% | 24% |
| COc1ccc(S(=O)(=O)N2CCCC2COCC(=O)NC2CCC(C(c3ccc(F)cc3)N(C)C)CC2)cc1 (stereo not drawn) [Example 461] | 13% | 20% |
| COc1cc(C)c(S(=O)(=O)N2CCC(OCC(=O)NCCC3CCC(C(c4ccc(Cl)cc4)N(C)C)CC3)C2)c(C)c1 (stereo not drawn) [Example 492] | 105% | 78% |
| CN(C)C(c1ccc(F)cc1)C1CCC(CCNC(=O)COC2CCN(S(=O)(=O)c3ccccc3)C2)CC1 (stereo not drawn) [Example 530] | −18% | 27% |
| CCN(CCOCC(=O)NCC1CCC(C(CCc2ccccc2)N(C)C)CC1)S(=O)(=O)c1c(C)cc(OC)c(C)c1C (stereo not drawn) [Example 536] | 105% | 95% |
| COc1cc(C)c(S(=O)(=O)N2CCC(OCC(=O)NC3CCC(C(c4ccc(F)cc4)N(C)C)CC3)CC2)c(C)c1C (stereo not drawn) [Example 454] | 45% | 10% |
| CN(C)C(c1ccc(Cl)cc1)C1CCC(CNC(=O)COCCN(C)S(=O)(=O)c2ccc(Cl)cc2Cl)CC1 (stereo not drawn) [Example 459] | 29% | 26% |
| CN(C)C(c1ccc(F)cc1)C1CCC(CCNC(=O)COC2CCN(S(=O)(=O)c3ccc(F)cc3)C2)CC1 (stereo not drawn) [Example 518] | −2% | 26% |
| Cc1cc(C)c(S(=O)(=O)N2CCC(OCC(=O)NCCC3CCC(C(c4ccc(Cl)cc4)N(C)C)CC3)C2)c(C)c1 (stereo not drawn) [Example 506] | 83% | 23% |

| Compound | B1R Ant. h [10 μM] % Inhibition [1] | B1R Ant. r [10 μM] % Inhibition [2] |
| --- | --- | --- |
| Cc1ccc(S(=O)(=O)N2CCC(OCC(=O)NCCC3CCC(C(c4ccc(F)cc4)N(C)C)CC3)C2)cc1 (stereo not drawn) [Example 491] | 5% | 16% |
| CN(C)C(c1ccc(F)cc1)C1CCC(NC(=O)COCC2CCCN(S(=O)(=O)c3ccccc3)C2)CC1 (stereo not drawn) [Example 478] | −3% | 23% |
| CN(C)C(c1ccc(F)cc1)C1CCC(CCNC(=O)COC2CCN(S(=O)(=O)c3cccc(C(F)(F)F)c3)C2)CC1 (stereo not drawn) [Example 466] | 7% | 22% |
| CN(C)C(c1ccc(F)cc1)C1CCC(CCNC(=O)COCCC2CCN(S(=O)(=O)c3ccccc3)CC2)CC1 (stereo not drawn) [Example 470] | 4% | 23% |
| CN(C)C(CCc1ccccc1)C1CCC(CNC(=O)COCCN(C)S(=O)(=O)c2ccc(Cl)cc2Cl)CC1 (stereo not drawn) [Example 513] | 100% | 40% |
| CN(C)C(c1ccc(F)cc1)C1CCC(CCNC(=O)COCCN2CCN(S(=O)(=O)c3ccccc3)CC2)CC1 (stereo not drawn) [Example 493] | −13% | 4% |
| COc1cc(C)c(S(=O)(=O)N(C)CCOCC(=O)NCC2CCC(C(CCc3ccccc3)N(C)C)CC2)c(C)c1 (stereo not drawn) [Example 525] | 99% | 93% |
| COc1cc(C)c(S(=O)(=O)N2CCC(CCOCC(=O)NCC3CCC(C(CCc4ccccc4)N(C)C)CC3)CC2)c(C)c1C (stereo not drawn) [Example 521] | 66% | 11% |
| CN(C)C(c1ccc(F)cc1)C1CCC(CNC(=O)COC2CCN(S(=O)(=O)c3ccc(Cl)cc3)C2)CC1 (stereo not drawn) [Example 517] | −13% | 38% |
| CN(C)C(c1ccc(F)cc1)C1CCC(CCNC(=O)COC2CCN(S(=O)(=O)c3ccc(Cl)cc3)C2)CC1 (stereo not drawn) [Example 464] | −2% | −6% |
| COc1ccc(S(=O)(=O)N2CCCC2COCC(=O)NCC2CCC(C(c3ccc(F)cc3)N(C)C)CC2)cc1 (stereo not drawn) [Example 511] | 38% | 17% |
| CN(C)C(c1ccc(F)cc1)C1CCC(CCNC(=O)COCC2CCCN(S(=O)(=O)c3ccccc3)C2)CC1 (stereo not drawn) [Example 479] | 18% | 22% |
| COc1cc(C)c(S(=O)(=O)N2CCC(OCC(=O)NCC3CCC(C(c4ccc(Cl)cc4)N(C)C)CC3)CC2)c(C)c1C (stereo not drawn) [Example 498] | 17% | 2% |
| COc1cc(C)c(S(=O)(=O)N(CCOCC(=O)NCC2CCC(C(CCc3ccccc3)N(C)C)CC2)Cc2ccccc2)c(C)c1 (stereo not drawn) [Example 542] | 103% | 45% |
| COc1cc(C)c(S(=O)(=O)N2CCC(CCOCC(=O)NCCC3CCC(C(c4ccc(F)cc4)N(C)C)CC3)CC2)c(C)c1C (stereo not drawn) [Example 510] | 15% | 27% |
| CN(C)C(c1ccc(F)cc1)C1CCC(CNC(=O)COC2CCN(S(=O)(=O)c3ccccc3)C2)CC1 (stereo not drawn) [Example 532] | 5% | −14% |
| COc1cc(C)c(S(=O)(=O)N2CCC(OCC(=O)NCC3CCC(C(c4ccc(F)cc4)N(C)C)CC3)C2)c(C)c1 (stereo not drawn) [Example 541] | 100% | 104% |
| CN(C)C(c1ccc(F)cc1)C1CCC(NC(=O)COC2CCN(S(=O)(=O)c3ccccc3)C2)CC1 (stereo not drawn) [Example 463] | −7% | 17% |
